Data reported in patent publication US10087142B2, “Azetidine derivatives useful as modulators of cortical cathecolaminergic neurotransmission” (Integrative Research Laboratories Sweden AB, priority 2015, dated 2018).
Structures can show the parent of a compound that is named as a salt. Where two headings read alike, the source gives them in different places. Marks after values point to notes of the source that are not given here.

Experiments:
[1] = system: monoamine transmitters (NA, DA and 5-HT); test: In vivo brain microdialysis of monoamines in striatum and frontal cortex; design: species or system rat; conditions: rats; for response vs control in vivo at 50 µmol/kg: Rattus norvegicus, sc
From the text: The microdialysis technique (See, for instance, Collin and Ungerstedt, Microdialysis: user's guide, Carnegie Medicin, Stockholm, 1988) is a well-established technique for measuring extracellular levels of neurotransmitters (Ungerstedt, J Int Med, 1991, 230; 365-73). The microdialysis technique was used to measure the effect of compounds disclosed herein upon the efflux of monoamine transmitters (NA, DA and 5-HT) in striatum and frontal cortex in conscious, freely moving rats.
Male Sprague-Dawley rats weighing 280-320 g were used throughout the experiments. Before the experiment the animals were housed in groups, maximum five animals in each cage, with free access to water and food. The animals were housed at least one week prior to surgery and use in the experiments.
A modified version (Waters et al., J Neural Transm Gen Sect, 1994, 98(1); 39-55) of the I-shaped probe (Santiago and Westerink, N-S Arch Pharmacol, 1990, 342; 407-14) with the AN69 polyacrylonitrile/sodium methyl sulfonate copolymer (HOSPAL; o.d/i.d. 310/220 μm: dialysis membrane (Gambro, Lund, Sweden) was used in the microdialysis experiments. In the dorsal striatum, probes with an exposed length of 3 mm of dialysis membrane were used and in the prefrontal cortex the corresponding length was 2.5 mm. The rats were operated under isoflurane inhalation anesthesia while mounted into a Kopf stereotaxic instrument. Coordinates were calculated relative to bregma; dorsal striatum AP+1.0, ML±2.6, DV 6.2; Pf cortex, AP 15+3.2, ML+1.2, DV −4.08°, according to Paxinos and Watson (New York, Academic Press, 1986; FIG. 8 and FIG. 14). The dialysis probe was positioned in a burr hole under stereotaxic guidance and cemented with phosphatine dental cement (DAB Dental).
The rats were housed individually in cages for 48 h before the dialysis experiments, allowing them to recover from surgery and minimizing the risk of drug interactions with the anesthetics during the following experiments. During this period the rats had free access to food and water.
On the day of the experiment the rats were connected to a micro-perfusion pump via a swivel and were replaced in the cage where they could move freely within its confinements. The perfusion medium was a Ringer's solution containing (in mmol/I): NaCl; 140, CaCl2; 1.2, KCl; 3.0, MgCl2; 1.0 (Moghaddam and Bunney. Neurochem., 1989, 53; 652-4). The pump was set to a perfusion speed of 2 μl/min and 40 μl sample volume were collected every 20 min.
The rats were perfused for at least 40 min before sampling began. Five fractions of each 20 min were collected and the last three were used for the establishment of the baseline. After collection of baseline fractions, the pharmacological challenge to the dialysis experiment started. Test compounds were administrated by injection (s.c.) in a volume of 5 ml/kg, with 0.9% NaCl (saline) as vehicle.
The analytical method were based on two chromatographic separations dedicated for amines or acids. Two chromatographic systems shared a common auto injector with a 10-port valve and two sample loops for simultaneous injection on the two systems.
The acids were separated by reversed phase chromatography while the amines were separated by reversed phase ion pairing chromatography preceded by a reverse phase separation in a column switching configuration. Three separation columns (Luna C18 (2), dp 3 μm, 2 mm i.d., Phenomenex) of different lengths were used. Electrochemical detection was accomplished on glassy carbon electrodes (MF-1000, Bioanalytical Systems, Inc.)
The aqueous mobile phase (0.6 ml/min) for the acid system contained citric acid (40 mM, dipotassium hydrogen phosphate 10 mM, methanol 8-11% (v/v) and EDTA 0.1 mM. Column length was 30 mm and detection potential relative to Ag/AgCl reference was 0.74V. […]

[2] = system: non-pre-treated Sprague-Dawley rats; test: Locomotor activity in drug-naïve rats (behaviour test); format: in vivo, rat; conditions: recorded 60 minutes, n = 5
Method: The effect of compounds in the present disclosure on locomotor activity in drug-naïve rats was also investigated. The animals were placed in the motility meters immediately after drug administration and locomotor activity was recorded for 60 minutes (counts/60 min±SEM). The results are presented as percent of control.
Behavioural activity was measured using eight Digiscan activity monitors (RXYZM (16) TAO, Omnitech Electronics, Columbus, Ohio, USA), connected to an Omnitech Digiscan analyzer and an Apple Macintosh computer equipped with a digital interface board (NB DIO-24, National Instruments, USA). Each activity monitor consisted of a quadratic metal frame (W×L=40 cm×40 cm) equipped with photo beam sensors. During measurements of behavioural activity, a rat was put in a transparent acrylic cage (W×L×H, 40×40×30 cm) which in turn was placed in the activity monitor. Each activity monitor was equipped with three rows of infrared photo beam sensors, each row consisting of 16 sensors. Two rows were placed along the front and the side of the floor of the cage, at a 90° angle, and the third row was placed 10 cm above the floor to measure vertical activity. Photo beam sensors were spaced 2.5 cm apart. Each activity monitor was fitted in an identical sound and light attenuating box containing a weak house light and a fan.
The computer software was written using object oriented programming (LabVIEW™, National instruments, Austin, Tex., USA).
Behavioural data from each activity monitor, representing the position (horizontal center of gravity and vertical activity) of the animal at each time, were recorded at a sampling frequency of 25 Hz and collected using a custom written LABView™ application. The data from each recording session were stored and analyzed with respect to distance traveled. Each behavioural recording session lasted 60 min, starting approximately 5 min after the injection of test compound.
Compounds disclosed herein have been tested for effects on spontaneous locomotor activity in non-pre-treated Sprague-Dawley rats (based on accumulated distance traveled 0-60 min post dosing), and with doses up to 33 μmol/kg (s.c.).

[3] = 50 μmol/kg s.c., frontal cortex dialysate, read-out: 5-HT FC ± SEM, maximum effect compared to baseline
[4] = 50 μmol/kg s.c., frontal cortex dialysate, read-out: DA FC ± SEM, maximum effect compared to baseline
[5] = 50 μmol/kg s.c., frontal cortex dialysate, read-out: NA FC ± SEM, maximum effect compared to baseline
[6] = 50 μmol/kg s.c., striatum dialysate, read-out: 5-HT Stri ± SEM, maximum effect compared to baseline
[7] = 50 μmol/kg s.c., striatum dialysate, read-out: DA Stri ± SEM, maximum effect compared to baseline
[8] = 50 μmol/kg s.c., striatum dialysate
[9] = 16.7 μmol/kg s.c., frontal cortex dialysate, Fumarate Salt
[10] = 16.7 μmol/kg s.c., striatum dialysate, Fumarate Salt

## CCCN1CC(C(F)c2cc(F)cc(F)c2)C1 (centres unmarked) [Example 20, 3-[(3,5-Difluorophenyl)(Fluoro)Methyl]-1-Propylazetidine Oxalate Salt]
[1]; [3]
  response vs control in vivo at 50 µmol/kg: 171%
[1]; [4]
  response vs control in vivo at 50 µmol/kg: 362%
[1]; [5]
  response vs control in vivo at 50 µmol/kg: 264%
[1]; [6]
  response vs control in vivo at 50 µmol/kg: 145%
[1]; [7]
  response vs control in vivo at 50 µmol/kg: 111%

## CCN1CC(C(F)c2cc(F)cc(F)c2F)C1 (centres unmarked) [Example 22, 1-Ethyl-3-[Fluoro(2,3,5-Trifluorophenyl)Methyl]Azetidine Oxalate Salt]
[1]; [3]
  response vs control in vivo at 50 µmol/kg: 140%
[1]; [4]
  response vs control in vivo at 50 µmol/kg: 654 ± 212%
[1]; [7]
  response vs control in vivo at 50 µmol/kg: 158%

## Fc1cc(C(F)C2CNC2)cc(F)c1F (centres unmarked) [Example 12, 3-[Fluoro(3,4,5-Trifluorophenyl)Methyl]Azetidine Oxalate Salt]
[1]; [3]
  response vs control in vivo at 50 µmol/kg: 322 ± 4%
[1]; [4]
  response vs control in vivo at 50 µmol/kg: 252 ± 70%
[1]; [5]
  response vs control in vivo at 50 µmol/kg: 214 ± 28%
[1]; [6]
  response vs control in vivo at 50 µmol/kg: 359 ± 105%
[1]; [7]
  response vs control in vivo at 50 µmol/kg: 131%

## Fc1ccc(C(F)C2CNC2)c(F)c1F (centres unmarked) [Example 11, 3-[Fluoro(2,3,4-Trifluorophenyl)Methyl]Azetidine Oxalate Salt]
[1]; [3]
  response vs control in vivo at 50 µmol/kg: 236%
[1]; [4]
  response vs control in vivo at 50 µmol/kg: 263%
[1]; [5]
  response vs control in vivo at 50 µmol/kg: 342%
[1]; [6]
  response vs control in vivo at 50 µmol/kg: 366%
[1]; [7]
  response vs control in vivo at 50 µmol/kg: 85 ± 14%

## Fc1cc(F)c(C(F)C2CNC2)c(F)c1.O=C(O)C(=O)O (centres unmarked) (hydrate or solvate)
other
  melting point: 149.6 °C

## Fc1cc(F)c(F)c(C(F)C2CNC2)c1F.O=C(O)C(=O)O (centres unmarked) (hydrate or solvate)
other
  melting point: 181.6 °C

## Fc1cc(F)c(F)c(C(F)C2CNC2)c1.O=C(O)C(=O)O (centres unmarked) [Example 9, 3-[Fluoro(2,3,5-Trifluorophenyl)Methyl]Azetidine Oxalate Salt]
[1]; [8]
  NA Stri ± SEM, maximum effect compared to baseline: 860^a percent of control
[1]; [3]
  response vs control in vivo at 50 µmol/kg: 207 ± 21%
[1]; [5]
  response vs control in vivo at 50 µmol/kg: 840 ± 122%
[1]; [6]
  response vs control in vivo at 50 µmol/kg: 231 ± 106%
[1]; [7]
  response vs control in vivo at 50 µmol/kg: 127 ± 13%

## Cl.Fc1ccc(C(F)C2CNC2)cc1F (centres unmarked) [Example 5, 3-[(3,4-Difluorophenyl)(Fluoro)Methyl]Azetidine Hydrochloric Acid Salt]
[1]; [8]
  NA Stri ± SEM, maximum effect compared to baseline: 480^a percent of control
[1]; [3]
  response vs control in vivo at 50 µmol/kg: 234%
[1]; [4]
  response vs control in vivo at 50 µmol/kg: 330 ± 75%
[1]; [6]
  response vs control in vivo at 50 µmol/kg: 435 ± 61%
[1]; [7]
  response vs control in vivo at 50 µmol/kg: 136 ± 4%

## CCCN1CC(C(F)c2cccc(F)c2F)C1.O=C(O)C(=O)O (centres unmarked) (hydrate or solvate)
other
  melting point: 137.4 °C

## Fc1ccc(C(F)C2CNC2)c(F)c1 (centres unmarked) [Example 8, 3-[(2,4-Difluorophenyl)(Fluoro)Methyl]Azetidine Oxalate Salt]
[1]; [3]
  response vs control in vivo at 50 µmol/kg: 428 ± 118%
[1]; [4]
  response vs control in vivo at 50 µmol/kg: 549 ± 163%
[1]; [5]
  response vs control in vivo at 50 µmol/kg: 400 ± 28%
[1]; [6]
  response vs control in vivo at 50 µmol/kg: 402 ± 12%
[1]; [7]
  response vs control in vivo at 50 µmol/kg: 133 ± 15%

## CCN1CC(C(F)c2cc(F)cc(F)c2)C1 (centres unmarked) [Example 19, 3-[(3,5-Difluorophenyl)(Fluoro)Methyl]-1-Ethylazetidine Oxalate Salt]
[1]; [3]
  response vs control in vivo at 50 µmol/kg: 212 ± 15%
[1]; [4]
  response vs control in vivo at 50 µmol/kg: 399 ± 30%
[1]; [5]
  response vs control in vivo at 50 µmol/kg: 354 ± 54%
[1]; [6]
  response vs control in vivo at 50 µmol/kg: 170 ± 63%
[1]; [7]
  response vs control in vivo at 50 µmol/kg: 144 ± 10%

## CCN1CC(C(F)c2c(F)c(F)cc(F)c2F)C1.O=C(O)C(=O)O (centres unmarked) (hydrate or solvate)
other
  melting point: 145.9 °C

## CCN1CC(C(F)c2cc(F)c(F)c(F)c2)C1.O=C(O)C(=O)O (centres unmarked) (hydrate or solvate)
other
  melting point: 129.8 °C

## Fc1cccc(F)c1C(F)C1CNC1 (centres unmarked) [Example 7, 3-[(2,6-Difluorophenyl)(Fluoro)Methyl]Azetidine Oxalate Salt]
[1]; [3]
  response vs control in vivo at 50 µmol/kg: 404 ± 21%
[1]; [4]
  response vs control in vivo at 50 µmol/kg: 860 ± 283%
[1]; [5]
  response vs control in vivo at 50 µmol/kg: 570 ± 6%
[1]; [6]
  response vs control in vivo at 50 µmol/kg: 213%
[1]; [7]
  response vs control in vivo at 50 µmol/kg: 130%

## CCCN1CC(C(F)c2cc(F)cc(F)c2F)C1.O=C(O)C(=O)O (centres unmarked) (hydrate or solvate)
other
  melting point: 159 °C

## Cl.Fc1cccc(C(F)C2CNC2)c1F (single isomer, unassigned; (+)) [Example 2, (+)-3-[(2,3-Difluorophenyl)(Fluoro)Methyl]Azetidine Hydrochloric Acid Salt]
[2]; 11 μmol/kg s.c.
  locomotor activity, percent of control means: 152%
[2]; 33 μmol/kg s.c.
  locomotor activity, percent of control means: 159%*
[1]; 50 μmol/kg s.c., frontal cortex dialysate
  5-HT FC ± SEM, maximum effect compared to baseline: 253 ± 92^b percent of control
[1]; [8]
  5-HT Stri ± SEM, maximum effect compared to baseline: 249 ± 5^b percent of control
  DA Stri ± SEM, maximum effect compared to baseline: 149 ± 7^b percent of control
  NA Stri ± SEM, maximum effect compared to baseline: 126 ± 7^b percent of control
[1]; [4]
  response vs control in vivo at 50 µmol/kg: 580 ± 223%
[1]; [5]
  response vs control in vivo at 50 µmol/kg: 394 ± 273%

## CCN1CC(C(F)c2cccc(F)c2F)C1 (centres unmarked) [Example 16, 3-[(2,3-Difluorophenyl)(Fluoro)Methyl]-1-Ethylazetidine Hydrochloric Acid Salt]
[1]; [3]
  response vs control in vivo at 50 µmol/kg: 197 ± 124%
[1]; [4]
  response vs control in vivo at 50 µmol/kg: 229 ± 23%
[1]; [5]
  response vs control in vivo at 50 µmol/kg: 272 ± 58%
[1]; [6]
  response vs control in vivo at 50 µmol/kg: 313 ± 23%
[1]; [7]
  response vs control in vivo at 50 µmol/kg: 139 ± 4%

## Fc1cc(F)cc(C(F)C2CNC2)c1.O=C(O)/C=C/C(=O)O (single isomer, unassigned; (+)) [Example 4, (+)-3-[(3,5-Difluorophenyl)(Fluoro)Methyl]Azetidine Fumarate Salt]
[1]; [9]
  5-HT FC ± SEM, maximum effect compared to baseline: 170^a percent of control
  DA FC ± SEM, maximum effect compared to baseline: 226^a percent of control
  NA FC ± SEM, maximum effect compared to baseline: 198^a percent of control
[1]; [10]
  5-HT Stri ± SEM, maximum effect compared to baseline: 198^a percent of control
  DA Stri ± SEM, maximum effect compared to baseline: 116^a percent of control
  NA Stri ± SEM, maximum effect compared to baseline: 122^a percent of control
